Source: US20200230136A1, “SELECTIVE ADRENORECEPTOR ALPHA2C RECEPTOR ANTAGONISTS ALONE, OR IN COMBINATION WITH CHYMASE INHIBITORS FOR USE IN THE TREATMENT AND/OR PROPHYLAXIS OF PERIPHERAL ARTERY DISEASES (PAD)” (Bayer Aktiengesellschaft, priority 2017, published 2020)

Assays:
Format in all cases: in vivo
[1] = system: atherosclerotic ApoE-/- mice, hindlimb ischemia; assay: Effects on running distance in apolipoprotein E knockout mice after hindlimb ischemia
Procedure: To evaluate effects more closely, the percent change in running distance compared to the run-in values (2 week run-in period before ligature) of all animals were analyzed.
FIG. 8: Effects of Compound of Ex. 8 on daily running distance in atherosclerotic ApoE-/- mice before and after induction of bilateral hindlimb ischemia (mean±SEM; 10 to 11 animals) • ApoE-/-=apolipoprotein E knockout; Ctrl.=control; SEM=standard error of mean

[2] = system: diabetic ZDF fa/fa rats, ligature of the left iliac artery; assay: Effects on ankle-brachial index in ZDF rats (unilateral hindlimb ischemia model)
Procedure: Compound of Ex. 8 induced a 10 to 30% improvement in the perfusion index (FIG. 7). […] Corresponding plasma concentrations were measured between 4 and 47 μg/L.
FIG. 6: Effects of Compound of Ex. 8 on perfusion pressure indices. Shown are baseline value (Od) as well as perfusion pressure indices after ligature of the left iliac artery and 2 weeks of daily treatment (14 d) with Compound of Ex. 8 in diabetic ZDF fa/fa rats (raw data; 10 animals) • Student t-test, Compound of Ex. 8 versus vehicle; ZDF=Zucker diabetic fatty
FIG. 7: Percent change in perfusion pressure indices by Compound of Ex. 8 after 14 days (14 d) of daily treatment compared to baseline values (mean±SEM; 10 animals) • SEM=standard error of mean; ZDF=Zucker diabetic fatty

[3] = system: ischemic wounds in New Zealand white rabbits; assay: Wound healing in the ischemic rabbit ear model
Procedure: Ischemic wounds (three 7 mm full-thickness dermal punches on the inner surface of both ears) were induced in New Zealand white rabbits. Oral gavage was done through a nasogastric tube or catheter. 20 rabbits were treated with Compound of Ex. 8 (0.3 mg/kg; n=10) or vehicle (10% ethanol, 30% PEG 400, 60% tap water, n=10) through the catheter daily at multiple time points [post-wounding days (POD) 3, 4, 5, 6 and 7]. Wounds were harvested on POD 10. For histologic analysis, one-half of wounds including the surrounding normal skin in rectangular shape was taken. One-half of the wound was frozen for further molecular analysis. Tissues underwent routine processing, paraffin embedding, and sectioning. A 4 μm cross section through the center of each rectangular biopsy was taken. The tissues were stained with hematoxylin and eosin and examined under light microscopy. Several histomorphometric measurements were determined, using a digital image analysis system (NIS-Elements Basic Research; Nikon Instech Co, Kanagawa, Japan) at 2 fold and 10 fold magnification. Each parameter was measured in a blinded manner.
In addition, tissue oxygen tension and blood flow were examined by the OxyLite® system (Oxford Optronix). Oxygen tension and blood flow were measured on POD 3, 7 and 10 in each rabbit. The oxygen tension unit is mmHg and the blood flow unit is blood PUs. The results were presented as ratio of O2-ischemia/O2-non-ischemia, or flow-ischemia/flow-non-ischemia. Analysis was performed by comparison between control and treatment groups on POD 3, 7 and 10.

[4] = system: full-thickness wounds in STZ-challenged minipigs; assay: Wound healing in streptozotocin (STZ)-challenged minipigs
Procedure: Wounds (twelve 15.15-mm full-thickness wounds) were induced in STZ-challenged minipigs. STZ challenge (160 mg/kg) was performed 14 days before wounding in 15 animals, two out of 15 animals had to be sacrificed due to blood glucose instability. The remaining 13 animals (body weight around 25 kg: 27.92±2.35 kg on the day of STZ dosing, Day 0: 24.35±2.14 kg and Day 17: 23.27±2.24 kg) were randomized to 3 groups:
Group I) placebo: Animal 1, 8, 10 and 13; Group II) 0.6 mg/kg Compound of Ex 8: Animal 2, 7, 11 and 12; Group III) 0.1 mg/kg Compound of Ex. 8: Animal 3, 4, 6, 14 and 15
Oral gavage was done by gelatin capsules containing Compound of Ex. 8 or lactose as placebo (25 kg body weight was assumed for all animals).
Topical treatment was performed using Compound of Ex. 8 in a concentration of 0.06 mg/mL in a Pluronic® gel matrix or as placebo Pluronic® gel at a volume of 1 mL per wound. The whole study was performed in a blinded manner. The 12 wounds per animal were treated according to Table 1 to combine oral treatment with and without topical treatment in this study. Wounds were closed by a sterile reclosable bag system. Animals were treated orally BID for 17 days starting after wounding (Day 0) and topically once daily on Days 0, 2, 5, 8, 11 and 14. On Day 17, wounds were harvested and animals sacrificed.
The primary endpoint of this study was wound size over study time. Wound size was evaluated via photographs and evaluated by photoshop under blinded conditions. Wound size was shown in absolute numbers as well as percent size vs. wound size on Day 0. In addition, re-epithelialization as well as wound contracture were determined The mean of all 12 wounds per animal was compared to Day 0. […] Between Day 5 and Day 11, a differentiation between the animals was observed.

[5] = 0.6 mg treated wounds vs placebo

O=C(c1cnc(N2CC3(COC3)C2)nc1)N1CCC(N2CCc3ccccc3C2)CC1 [Compound of Ex. 8, [4-(3,4-Dihydroisoquinolin-2(1H)-yl)piperidin-1-yl][2-(2-oxa-6-azaspiro[3.3]hept-6-yl)pyrimidin-5-yl]methanone]
total running distance, percent change vs run-in values ([1]; 10 μg/ml (FIG. 9)): tendency toward an improvement | running distance, area under the curve from Day 0 to Day 28 ([1]; 30 μg/kg vs placebo): significant improvements compared to placebo | running distance, percent change vs run-in values ([1]; 30 μg/kg, several days during the 4 week observation period (FIG. 10)): significant improvement in running distance | running distance, area under the curve from Day 0 to Day 28 ([1]; 100 μg/kg vs placebo): significant improvements compared to placebo | running distance, percent change vs run-in values ([1]; 100 μg/kg, several days during the 4 week observation period (FIG. 11)): significant improvement in running distance | running distance ([1]; oral administration of 10, 30 and 100 μg/mL, after induction of hindlimb ischemia (FIG. 8)): increase in running distance | perfusion pressure ([2]; 0.3 mg/kg (most effective dose), 14 d daily treatment): significant increase in perfusion pressure | muscle function in the ligated limb ([2]; 0.1, 0.3 and 1 mg/kg): slight tendency toward improved muscle function | perfusion indices ([2]; 0.1, 0.3 and 1 mg/kg, 2 weeks of daily treatment (FIG. 6)): increase in perfusion indices at all doses | granulation area ([3]; 0.3 mg/kg oral, POD 3-7, wounds harvested POD 10, P=0.07 vs control): 133,630+20,208 μm^2 | epithelial gap ([3]; 0.3 mg/kg oral, POD 3-7, wounds harvested POD 10, no significant difference vs control): 5,212+213 μm | blood flow ratio (flow-ischemia/flow-non-ischemia) ([3]; 0.3 mg/kg, POD 10, P=0.018 vs control): 0.495 | oxygen tension ratio (O2-ischemia/O2-non-ischemia) ([3]; 0.3 mg/kg, POD 10, P=0.079 vs control): 0.238 | change in blood flow ratio from POD 3 to POD 10 ([3]; 0.3 mg/kg, same rabbit, P=0.108 vs control): 0.149 | change in oxygen tension ratio from POD 3 to POD 10 ([3]; 0.3 mg/kg, same rabbit, P=0.322 vs control): 0.082 | wound size, wounds without topical treatment (Wounds 1 to 6) ([4]; 0.1 mg/kg oral BID vs placebo, Day 2 (P=0.011) and Day 5 (P=0.014)): significant improvement vs. placebo | wound contracture ([4]; 0.1 mg/kg oral BID, Day 2, 5, 8, 11 and 17): improvement in wound contracture being significant | course of wound healing (variability) ([4]; 0.1 mg/kg oral BID, between Day 5 and Day 11): greater heterogeneity | histology: cell proliferation [4, 5]: reduced cell proliferation | histology: collagen III/I ratio [4, 5]: lower collagen III/I ratio | histology: detectable vessels [4, 5]: more detectable vessels | histology: differentiation level of the epidermis [4, 5]: increased differentiation level of the epidermis | histology: inflammation [4, 5]: reduced inflammation | histology: re-epithelialization level [4, 5]: higher re-epithelialization level | histology: structuring of basement membranes defined by laminin detection [4, 5]: increased structuring of basement membranes | histological evaluation of wound healing ([4]; 0.6 mg treated wounds vs placebo, wounds harvested Day 17): more advanced wound healing | wound size over time, mean of all wounds ([4]; 0.6 mg/kg oral BID 17 days vs placebo, all 12 wounds per animal, all days (FIG. 1)): significantly improved wound healing | wound size, wounds without topical treatment (Wounds 1 to 6) ([4]; 0.6 mg/kg oral BID vs placebo, all values (FIG. 2)): significantly better compared to the placebo group | wound contracture ([4]; 0.6 mg/kg oral BID, Day 2, 5, 8 and 11): improvement in wound contracture being significant | difference in wound size vs placebo, wounds without topical treatment (Wounds 1 to 6) ([4]; 0.6 mg/kg oral BID, Day 8): about 21.6% | re-epithelialization ([4]; 0.6 mg/kg oral BID, Day 17, two animals of the group): complete and stable re-epithelialization | speed of wound healing ([4]; 0.6 mg/kg oral BID, between Day 5 and Day 11, vs placebo and 0.1 mg/kg groups): quicker wound healing compared to the 2 other groups | wound size, wounds without topical treatment (Wounds 1 to 6), dose comparison ([4]; 0.6 mg/kg vs 0.1 mg/kg group, Days 8, 11, 14 and 17): significantly better compared to the 0.1 mg/kg group
